Data set [1] concerns the target T1, ScRIB7 (Saccharomyces cerevisiae, UniProt P33312, T79A).
T1 construct: gene RIB7; recombinant in E. coli BL21(DE3), pGEX6p-1, GST tag removed with PreScission protease; homodimer, ~43 kDa by sedimentation
T1 sequence (P33312 1-244 T79A): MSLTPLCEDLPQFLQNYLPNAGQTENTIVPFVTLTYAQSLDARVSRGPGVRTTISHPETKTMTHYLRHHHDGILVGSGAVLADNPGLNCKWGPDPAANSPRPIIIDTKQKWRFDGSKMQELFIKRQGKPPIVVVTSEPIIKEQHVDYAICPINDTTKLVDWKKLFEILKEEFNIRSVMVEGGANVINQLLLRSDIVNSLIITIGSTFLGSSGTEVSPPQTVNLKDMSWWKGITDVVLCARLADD
Description: isothermal titration calorimetry. Type of data set: binding. As to conditions: 80 µM protein titrated with 800 µM NADPH in PBS.

The target of data set [2] is T2, ScRIB7 (Saccharomyces cerevisiae, UniProt P33312, D83A).
T2 construct: gene RIB7; recombinant in E. coli BL21(DE3), pGEX6p-1, GST tag removed with PreScission protease; homodimer, ~43 kDa by sedimentation
T2 sequence (P33312 1-244 D83A): T1 sequence (P33312 1-244 T79A) with A79T, D83A
Description: isothermal titration calorimetry. The format is binding. Conditions: 80 µM protein titrated with 800 µM NADPH in PBS. (ITC needs no label: the signal is the heat of the interaction.)

In data set [3] the target is T3, ScRIB7 (Saccharomyces cerevisiae, UniProt P33312).
T3 construct: gene RIB7; recombinant in E. coli BL21(DE3), pGEX6p-1, GST tag removed with PreScission protease; homodimer, ~43 kDa by sedimentation
T3 sequence (P33312 1-244): T1 sequence (P33312 1-244 T79A) with A79T
The data set is described as follows: isothermal titration calorimetry. The format is binding. Conditions: 80 µM protein titrated with 800 µM NADPH in PBS; crystal structure of the complex (2.35 Å) also solved.

Data set [4] concerns the molecule itself. The data set is described as follows: SEC; gel filtration, data not shown; conditions of this run not told.

Where a chain is given by its changes, count along the chain named.

On to `NC(=O)C1=CN([C@@H]2O[C@H](COP(=O)(O)OP(=O)(O)OC[C@H]3O[C@@H](n4cnc5c(N)ncnc54)[C@H](OP(=O)(O)O)[C@@H]3O)[C@@H](O)[C@H]2O)C=CC1` [NADPH], for which, in data set [1], the “no interaction heat detected” value is “no interaction heat was detected for the T79A mutant”. Further, the binding constant entry in data set [2] was “The binding constant of the D83A mutant with NADPH was similar to that of the wild type”; in data set [3] it was “Interactions between enzymes and NADPH were detected by isothermal titration calorimetry using nano-ITC2g”.

B1: Saccharomyces cerevisiae RIB7 (enzyme)
chain: T1 sequence (P33312 1-244 T79A) with A79T
notes: RIB7, riboflavin biosynthesis reductase of Saccharomyces cerevisiae; RIB7 gene amplified from genomic DNA and cloned BamHI/XhoI into pGEX6p-1; Wild type; A seleno-methionine derivative was used only for phasing; Residues left by the PreScission site after cleavage are not described; also called ScRIB7; riboflavin biosynthesis reductase RIB7; source: E. coli BL21 (DE3), purified …
As to B1, the “stoichiometry N” value in data set [4] worked out at 2.

What is called stoichiometry N is a count of units in the complex or per binding partner.

The values above are taken from PMC3631187, “Structural and Functional Insights into Saccharomyces cerevisiae Riboflavin Biosynthesis Reductase RIB7” (PLoS ONE, 2013).
